The values that follow come from patent US8822542B2, “Isoketal scavengers and mitigation of disorders involving oxidative injury” (Vanderbilt University, priority 2005, dated 2014).

Data set [1] has as its system patients convalescing from myocardial infarction. The conditions noted are these: in vivo; cited from earlier work.
Data set [2] addresses human cardiac Na channel (hH1, or SCN5A) (Homo sapiens, UniProt Q14524). Kind of data set: Whole-cell Na current recording, wild-type hH1 expressed in HEK-293 cells. The note with it: for P500/P1 (use-dependence): 5 Hz, 500 pulses; for V1/2 voltage-dependence of inactivation (availability): HEK-293, t-BHP 1 mM, Iso-K 10 μM.
The target in data set [3] is mutant Na+ channel (F1760A) (Homo sapiens, UniProt Q14524, F1760A). The experiment in a line: Whole-cell Na current recording, F1760A mutant Na+ channel. The class given is cell-based. The conditions noted are these: flecainide 10 μM, IsoK 10 μM.
Method: A. Use-dependent flecainide block was examined using the protocol shown. A train of 500 depolarizing pulses with 10 msec duration at −20 mV were applied at a frequency of 5 Hz. Currents are plotted from every twentieth pulse. Upper panel represents the current in the presence of flecainide (1 μM). Lower panel represents INa in the presence of flecainide and IsoK (10 μM). B. Depolarization-dependent effects are summarized as a function of the pulse number. All current amplitudes are normalized to that of the first depolarization and every tenth pulse is plotted. […] For these experiments flecainide concentration was increased to 10 μM.
Where indicated, cells were co-transfected with an equimolar ratio of Na channel human β1 subunit. cDNAs were transiently transfected into HEK-293 cells using lipofectamine (GIBCO-BRL, Gaithersburg, Md.), and were cultured in MEM medium supplemented with 10% fetal bovine serum and 1% pen-strep in a 5% CO2 incubator at 37° C. for 1 to 4 days.
The effects of IsoK were tested using the same protocol as FIG. 39A. In this experiment, the concentration of flecainide was increased to 10 μM to exaggerate use-dependence.
Data set [4] addresses native Na+ channels in HL-1 cells (Mus musculus, UniProt Q9JJV9). The conditions noted are these: for Na channel availability: HL-1, preincubation; for V1/2 availability of native Na+ channels: HL-1, t-BHP 2 mM, Iso-K 10 μM.
The next data set deals with HEK-293 cells. The experiment in a line: Lipid peroxidation products in HEK 293 cells treated with t-BHP. The note with it: exposure of HEK cells. Format: cell-based. Here is the method: Synthesis and analysis of reactive products of lipid peroxidation: E2-isoketal was synthesized as previously described. The present inventors used mass spectrometry to analyze F2-isoprostanes formed following treatment of HEK 293 cells with t-BHP. For this assay, HEK-293 cells (1×10^6) were treated for 30 minutes at room temperature with buffer containing 100 μM t-BHP, or 100 μM t-BHP and 200 μM FeCl2. Total (free and esterified) F2-isoprostanes (F2-IsoPs) esterified in cellular lipids were then quantified by a highly accurate GC/NICI/MS assay as described previously.

In a further data set the test system is P19 neuroglial cultures. The experiment in a line: Cell death in P19 neuroglial cultures. Format: cell-based. The note with it: read-out: LC50 cell death. From the text:
(§1) Because inhibitors of proteasome function induce neuronal death, the present inventors examined the toxicity of IsoKs.

For the next data set, the system named is proteasome. The experiment in a line: Proteasome inhibition in P19 neuroglial cultures. Format: cell-based.
Text: as §1

For the next data set, the target named is ovalbumin (OVA) (Gallus gallus, UniProt P01012). Kind of data set: Protein cross-linking after incubation with ovalbumin. The class given is biochemical. The conditions noted are these: 10 molar equivalents, about 4 hours. From the text:
The above findings explained why repeated attempts in the past to detect free IsoKs during oxidation of biological systems in vitro, e.g. microsomes, and in animal models of oxidant injury in vivo were unsuccessful because they are rapidly sequestered as protein adducts. Therefore, the present inventors undertook to determine the identity of IsoK lysyl adducts as a basis for development of methodology to detect IsoK and NeuroK adducts in biological tissues in their adducted form. […] Reversible Schiff base adducts were also identified. Schiff base adducts are formed rapidly and then decline over time, whereas lactam adducts accumulate slowly over time. Lysyl protein adducts of IsoKs and NeuroKs are analyzed by LC/MS/MS following enzymatic digestion of proteins to individual amino acids. Enzymatic digestion of proteins is necessary because the adducts degrade during acid hydrolysis. However, this analysis is further complicated by the proclivity of IsoKs and NKs to induce protein crosslinking, which is resistant to hydrolysis. […] This is a dramatic example of the differential effects of IsoKs/NKs and HNE on protein adduction and cross-linking.

The subject of another data set is recombinant human tau. The experiment in a line: PHF-tau formation, dot blot with Alz50. Format: biochemical. The conditions noted are these: equimolar IsoK and tau, within 2 hrs. Here is the method: Synthetic IsoK to equimolar amounts of recombinant human tau was added and the amount of PHF-tau formation by dot blot analysis was determined with the monoclonal antibody Alz50 (a gift from Dr. Peter Davis). Alz50 recognizes an epitope unique to PHF-tau. […] (FIG. 33).

Another data set has as its target bovine serum albumin (Bos taurus, UniProt P02769). Kind of data set: Disappearance of free IsoK and HNE during incubation with bovine serum albumin (rate of adduction). The class given is biochemical. The method, then:
Oxidation of AA in vitro produces both F2-IsoPs and IsoKs in nearly equivalent amounts. However, comparison of the formation of F2-IsoPs and IsoKs in vivo is more complex, because IsoKs rapidly adduct to lysyl residues on proteins. […] In striking contrast, approximately 50% of the HNE still remained in free form after 80 minutes.

For data set [5], the system named is proteasome chymotrypsin-like activity. Kind of data set: Inhibition of chymotrypsin-like activity in RAW cell lysates. Format: biochemical. From the text:
When the mechanism of inhibition id analyzed, both competitive and non-competitive mechanism are found. Therefore, in addition to adducted proteins inhibiting the proteasome, IsoKs may cause inhibition by directly adducting to the proteasome itself, or to proteins that regulate proteasome activity.

The mark [6] stands for this setting: alone, flecainide 1 μM, IsoK 10 μM.

Sequence of human cardiac Na channel (hH1, or SCN5A) (Q14524 whole entry): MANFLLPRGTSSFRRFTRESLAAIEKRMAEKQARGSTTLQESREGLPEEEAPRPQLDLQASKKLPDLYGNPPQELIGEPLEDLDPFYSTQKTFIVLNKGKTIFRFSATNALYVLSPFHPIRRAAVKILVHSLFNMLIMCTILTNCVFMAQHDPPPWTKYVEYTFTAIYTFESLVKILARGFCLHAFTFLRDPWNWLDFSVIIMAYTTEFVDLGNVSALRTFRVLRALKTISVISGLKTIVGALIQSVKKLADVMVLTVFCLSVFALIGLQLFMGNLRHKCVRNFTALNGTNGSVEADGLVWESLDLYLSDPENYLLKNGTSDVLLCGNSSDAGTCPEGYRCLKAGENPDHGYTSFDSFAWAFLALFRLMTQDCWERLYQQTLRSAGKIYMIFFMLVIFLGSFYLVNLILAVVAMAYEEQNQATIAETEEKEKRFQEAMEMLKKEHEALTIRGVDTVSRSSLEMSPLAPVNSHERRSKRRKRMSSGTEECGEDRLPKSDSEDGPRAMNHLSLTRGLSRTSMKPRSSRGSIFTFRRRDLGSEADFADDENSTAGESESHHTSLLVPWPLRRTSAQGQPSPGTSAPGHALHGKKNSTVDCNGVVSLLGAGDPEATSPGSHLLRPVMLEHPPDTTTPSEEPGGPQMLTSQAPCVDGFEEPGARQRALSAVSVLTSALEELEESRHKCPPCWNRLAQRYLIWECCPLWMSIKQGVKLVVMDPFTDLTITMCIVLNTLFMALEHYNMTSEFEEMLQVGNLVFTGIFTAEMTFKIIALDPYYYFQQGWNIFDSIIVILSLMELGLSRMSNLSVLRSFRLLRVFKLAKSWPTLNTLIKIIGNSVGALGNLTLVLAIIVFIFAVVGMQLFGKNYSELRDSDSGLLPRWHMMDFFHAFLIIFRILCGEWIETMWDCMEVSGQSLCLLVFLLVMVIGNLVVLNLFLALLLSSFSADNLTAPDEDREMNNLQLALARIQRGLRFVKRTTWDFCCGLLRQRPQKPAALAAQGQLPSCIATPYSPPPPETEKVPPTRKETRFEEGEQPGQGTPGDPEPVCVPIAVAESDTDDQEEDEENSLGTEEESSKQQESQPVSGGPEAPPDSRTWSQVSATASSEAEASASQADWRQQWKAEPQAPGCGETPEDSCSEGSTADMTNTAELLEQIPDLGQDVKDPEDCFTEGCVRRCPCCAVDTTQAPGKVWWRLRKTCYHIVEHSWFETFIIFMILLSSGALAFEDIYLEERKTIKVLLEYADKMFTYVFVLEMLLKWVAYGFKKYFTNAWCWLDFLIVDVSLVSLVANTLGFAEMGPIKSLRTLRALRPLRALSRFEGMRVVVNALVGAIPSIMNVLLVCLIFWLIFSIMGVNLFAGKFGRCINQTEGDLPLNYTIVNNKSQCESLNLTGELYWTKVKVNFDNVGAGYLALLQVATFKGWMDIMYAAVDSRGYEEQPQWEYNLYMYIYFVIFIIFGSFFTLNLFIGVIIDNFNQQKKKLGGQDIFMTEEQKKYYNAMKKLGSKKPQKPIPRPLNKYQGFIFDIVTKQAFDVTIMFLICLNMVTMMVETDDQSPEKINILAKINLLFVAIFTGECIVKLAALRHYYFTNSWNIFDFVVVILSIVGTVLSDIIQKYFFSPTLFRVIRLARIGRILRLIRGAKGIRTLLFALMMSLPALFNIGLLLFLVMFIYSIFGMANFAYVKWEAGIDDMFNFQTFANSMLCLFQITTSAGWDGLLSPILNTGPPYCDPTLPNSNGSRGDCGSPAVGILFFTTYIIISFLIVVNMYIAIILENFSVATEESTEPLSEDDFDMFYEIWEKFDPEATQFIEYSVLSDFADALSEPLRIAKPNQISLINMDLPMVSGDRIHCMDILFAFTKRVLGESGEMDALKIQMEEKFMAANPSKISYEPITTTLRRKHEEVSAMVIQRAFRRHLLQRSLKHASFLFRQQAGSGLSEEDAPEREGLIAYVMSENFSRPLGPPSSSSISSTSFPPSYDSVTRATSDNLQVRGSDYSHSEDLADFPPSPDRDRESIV
Sequence of native Na+ channels in HL-1 cells (Q9JJV9 whole entry): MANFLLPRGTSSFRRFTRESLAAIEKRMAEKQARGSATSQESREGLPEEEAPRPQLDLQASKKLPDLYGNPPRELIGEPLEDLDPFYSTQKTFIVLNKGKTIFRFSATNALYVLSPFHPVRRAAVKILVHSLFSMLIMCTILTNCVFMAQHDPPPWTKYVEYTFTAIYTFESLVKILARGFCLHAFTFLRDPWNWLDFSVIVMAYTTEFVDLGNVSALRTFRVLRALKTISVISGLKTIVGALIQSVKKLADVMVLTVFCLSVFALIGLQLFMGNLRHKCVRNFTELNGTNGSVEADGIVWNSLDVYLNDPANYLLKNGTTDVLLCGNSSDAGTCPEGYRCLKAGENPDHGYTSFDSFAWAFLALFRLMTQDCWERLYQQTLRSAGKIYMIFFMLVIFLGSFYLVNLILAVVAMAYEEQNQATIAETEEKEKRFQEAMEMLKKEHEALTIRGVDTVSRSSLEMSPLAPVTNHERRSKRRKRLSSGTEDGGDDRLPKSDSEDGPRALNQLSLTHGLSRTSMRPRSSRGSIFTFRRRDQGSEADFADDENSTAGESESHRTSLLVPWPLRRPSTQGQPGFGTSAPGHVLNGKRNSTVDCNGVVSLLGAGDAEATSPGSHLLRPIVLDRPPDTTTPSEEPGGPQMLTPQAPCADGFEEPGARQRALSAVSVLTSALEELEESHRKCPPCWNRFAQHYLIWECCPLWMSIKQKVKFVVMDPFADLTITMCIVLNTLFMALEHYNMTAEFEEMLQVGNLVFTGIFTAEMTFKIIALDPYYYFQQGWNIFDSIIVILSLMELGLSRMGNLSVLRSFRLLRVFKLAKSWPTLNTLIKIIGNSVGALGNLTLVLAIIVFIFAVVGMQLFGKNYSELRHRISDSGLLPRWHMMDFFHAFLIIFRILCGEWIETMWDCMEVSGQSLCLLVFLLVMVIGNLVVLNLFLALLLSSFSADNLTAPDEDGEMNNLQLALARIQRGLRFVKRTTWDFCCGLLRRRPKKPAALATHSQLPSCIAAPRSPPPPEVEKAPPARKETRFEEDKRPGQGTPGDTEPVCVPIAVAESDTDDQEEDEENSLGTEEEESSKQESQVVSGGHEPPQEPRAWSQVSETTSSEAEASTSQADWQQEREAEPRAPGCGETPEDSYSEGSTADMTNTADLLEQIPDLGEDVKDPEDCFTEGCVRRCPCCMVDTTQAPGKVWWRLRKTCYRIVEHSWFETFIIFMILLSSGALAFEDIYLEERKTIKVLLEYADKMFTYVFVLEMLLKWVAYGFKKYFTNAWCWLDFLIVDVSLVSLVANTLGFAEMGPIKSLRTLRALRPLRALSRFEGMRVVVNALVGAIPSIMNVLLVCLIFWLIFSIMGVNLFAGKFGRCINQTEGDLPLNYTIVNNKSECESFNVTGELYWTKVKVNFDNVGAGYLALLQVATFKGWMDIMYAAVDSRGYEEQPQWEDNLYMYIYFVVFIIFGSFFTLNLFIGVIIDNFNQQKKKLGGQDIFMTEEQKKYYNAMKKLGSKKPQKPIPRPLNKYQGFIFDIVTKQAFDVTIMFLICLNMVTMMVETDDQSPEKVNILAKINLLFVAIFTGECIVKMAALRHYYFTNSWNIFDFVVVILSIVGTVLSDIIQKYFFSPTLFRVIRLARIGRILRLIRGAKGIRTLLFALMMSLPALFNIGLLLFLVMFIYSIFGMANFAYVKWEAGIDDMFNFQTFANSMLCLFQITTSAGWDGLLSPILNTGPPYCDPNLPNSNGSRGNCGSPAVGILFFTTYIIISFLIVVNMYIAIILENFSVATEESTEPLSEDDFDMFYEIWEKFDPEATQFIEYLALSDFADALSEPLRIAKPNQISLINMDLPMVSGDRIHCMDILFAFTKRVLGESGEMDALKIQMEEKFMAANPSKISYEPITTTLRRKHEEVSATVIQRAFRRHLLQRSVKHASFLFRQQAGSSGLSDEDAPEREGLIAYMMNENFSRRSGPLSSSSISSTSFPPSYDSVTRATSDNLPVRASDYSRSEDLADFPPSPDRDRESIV
Sequence of ovalbumin (OVA) (P01012 whole entry, species assumed): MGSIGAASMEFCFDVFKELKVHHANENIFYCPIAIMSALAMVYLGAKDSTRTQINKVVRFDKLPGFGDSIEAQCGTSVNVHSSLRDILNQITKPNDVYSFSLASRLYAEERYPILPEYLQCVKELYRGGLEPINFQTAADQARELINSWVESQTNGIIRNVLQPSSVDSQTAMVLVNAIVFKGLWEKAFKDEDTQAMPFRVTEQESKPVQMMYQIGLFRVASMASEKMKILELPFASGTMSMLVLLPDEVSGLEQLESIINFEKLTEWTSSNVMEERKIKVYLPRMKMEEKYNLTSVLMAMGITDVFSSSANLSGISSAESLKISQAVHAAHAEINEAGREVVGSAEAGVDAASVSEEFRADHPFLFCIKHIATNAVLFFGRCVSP
Sequence of bovine serum albumin (P02769 25-607): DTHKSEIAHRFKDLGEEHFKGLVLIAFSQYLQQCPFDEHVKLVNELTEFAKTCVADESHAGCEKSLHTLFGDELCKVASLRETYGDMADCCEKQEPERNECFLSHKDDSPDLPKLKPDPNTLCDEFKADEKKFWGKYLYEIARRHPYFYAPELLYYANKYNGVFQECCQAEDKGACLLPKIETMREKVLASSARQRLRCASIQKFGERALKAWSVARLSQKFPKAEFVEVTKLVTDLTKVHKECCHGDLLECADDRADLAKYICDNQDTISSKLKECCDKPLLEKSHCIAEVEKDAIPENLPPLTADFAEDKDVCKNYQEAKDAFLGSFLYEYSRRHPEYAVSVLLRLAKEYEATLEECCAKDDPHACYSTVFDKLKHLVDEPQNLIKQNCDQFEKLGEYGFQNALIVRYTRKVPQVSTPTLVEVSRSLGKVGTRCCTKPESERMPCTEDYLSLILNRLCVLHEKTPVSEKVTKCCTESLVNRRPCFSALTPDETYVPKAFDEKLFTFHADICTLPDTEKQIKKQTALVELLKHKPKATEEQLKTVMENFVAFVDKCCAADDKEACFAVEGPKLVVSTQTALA

Take `O=C(NCC1CCCCN1)c1cc(OCC(F)(F)F)ccc1OCC(F)(F)F` (stereo not drawn) [flecainide]: the mortality increase entry in [1] is recorded as “three-fold”. In data set [2], the “A1 (amplitude of the fast component, recovery from inactivation)” value was 0.80 ± 0.04 and the “A2 (amplitude of the slow component, recovery from inactivation)” value was determined as 0.20 ± 0.04. The “P500/P1 (use-dependence)” value in data set [2] (setting [6]) worked out at 0.87±0.04. Moreover, the “V1/2 voltage-dependence of inactivation (availability)” value in [2] (flecainide 1 μM) is −86.4±2.1 mV. Besides, in [2] (WT, flecainide 10 μM, IsoK 10 μM), the “P500/P1 (use-dependent block)” value was determined as 0.38±0.05. Moreover, the “V1/2 voltage-dependence of inactivation” value in data set [2] (flecainide 1 μM in the presence of IsoK 10 μM) is on record as −99.3±2.3 mV. Moreover, the “P500/P1 (use-dependent block)” value in data set [3] was 0.92±0.03.

With `CC(C)(C)OO` [t-BHP, tert-butyl hydroperoxide], in [4], the “Na channel availability” value was “reduced Na channel availability” and the “V1/2 availability of native Na+ channels” value is recorded as −82.8±1.7 mV. Moreover, in the data set with HEK-293 cells, the “formation of lipid peroxidation products” value was “abundant quantities of F2-IsoPs and IsoK”.

As for E2-isoketal, in [2], the “A1 (amplitude of the fast component, recovery from inactivation)” value is reported as 0.79 ± 0.04; the “A2 (amplitude of the slow component, recovery from inactivation)” value stood at 0.21 ± 0.04; the INa decay result is “speeded the rate Of INa decay”; the “V1/2 voltage-dependence of activation” value is given as −41.6±1.5 mV. Moreover, the “P500/P1 (use-dependence)” value in data set [2] (setting [6]) amounted to 0.89±0.02. In addition, the “P500/P1 (use-dependence)” value in [2] (in the presence of flecainide 1 μM) was 0.66±0.03. The “V1/2 voltage-dependence of inactivation (availability)” value in data set [2] (flecainide 1 μM) is reported as −96.4±1.1 mV. Moreover, in data set [2] (over a range of membrane potentials), the “activation of sodium channels” value is “no effect on the activation”. In addition, the CC50 with P19 neuroglial cultures stood at 670 nM. In the data set with proteasome, this compound came in with a half-inhibitory concentration (IC50) of 330 nM. In addition, in [4], the “Na channel availability” value was “reduced Na channel availability” and the “V1/2 availability of native Na+ channels” value is −82.0±1.7 mV. Further, the cross-linking of ovalbumin result on ovalbumin (OVA) was “extensive cross-linked high molecular weight oligimers”. Besides, the “PHF-tau formation (Alz50)” value with recombinant human tau is recorded as “strong Alz50 immunoreactivity”. Also, the adduction to albumin result at bovine serum albumin is “essentially complete within a few minutes”. In [5], this compound displayed an IC50 of 2100 nM.
